Data: patent publication US20070225335A1, “Pyrazole Derivatives for Treating Condit Ions Mediated by Activation of the Adeno Sine A2B or A3 Receptor” (priority 2004, published 2007)

Biological target: T1, human adenosine A2b receptor (Homo sapiens, UniProt P29275)
T1 construct: expressed in transfected cells; host or cells: CHO (Chinese Hamster Ovary) cells co-transfected with the reporter plasmid pCRE-LUCI
T1 sequence (P29275 1-332): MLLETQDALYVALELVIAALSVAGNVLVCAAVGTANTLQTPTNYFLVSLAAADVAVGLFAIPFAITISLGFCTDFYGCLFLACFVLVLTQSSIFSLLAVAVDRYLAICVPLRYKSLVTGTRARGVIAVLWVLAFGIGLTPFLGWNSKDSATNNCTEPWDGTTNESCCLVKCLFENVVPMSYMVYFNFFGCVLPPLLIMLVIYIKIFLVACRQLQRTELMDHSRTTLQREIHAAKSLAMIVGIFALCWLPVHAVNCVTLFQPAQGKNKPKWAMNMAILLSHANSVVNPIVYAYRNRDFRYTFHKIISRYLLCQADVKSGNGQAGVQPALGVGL
Experiment: Adenosine A2b receptor reporter gene assay (luciferase, CHO-A2b cells, NECA agonist)
Assay type: cell-based
Details: CHO cells with pCRE-LUCI and human A2b receptor; shift of NECA concentration-response curve; antagonist at 100 nM or 1 μM; KB=[antagonist]/(concentration ratio−1)
Protocol: Adenosine A2b Receptor Reporter Gene Assay a) Culturing of Chinese Hamster Ovary (CHO) A2b Cell Line
CHO cells transfected with a Luciferase-expressing reporter plasmid (pCRE-LUCI) and with a plasmid carrying the human adenosine A2b receptor structural gene (pA2bRCV) are routinely cultured in Dulbecco's Modified Eagle Medium (DMEM)—supplemented with 10% v/v fetal calf serum (FCS), 2 mM L-glutamine, 0.4 mg/ml L-proline, 1 nM sodium selenite, 0.5 mg/ml Hygromycin B and 1 mg/ml Geneticin—at 37° C., 5% CO2 and 100% humidity. The cells are left to grow to confluence for 4-5 days. The cells obtained are passaged using trypsin/EDTA and split at a ratio of 1 in 5. […]
b) Preparation of cells for assay […]
5′-N-ethylcarboxamidoadenosine (NECA), an adenosine A2b agonist, is prepared as a […] solution in DMSO and then diluted to 100 μM with Assay Buffer. […] 100 μl of Steady-Glo, a Luciferase assay substrate from Promega, is added to all wells to lyse the cells and generate luminescence in proportion to the amount of Lucifrease produced. The plates are left for a minimum of 5 minutes before being read on the luminescence program of a Topcount NXT microplate scintillation counter (ex Packard). […]

Kb	Compound
0.188 µM	O=C(Nc1cccnc1)c1cc(-c2ccncc2)n(-c2cccc(F)c2)n1 [Example 33, 1-(3-Fluoro-phenyl)-5-pyridin-4-yl-1H-pyrazole-3-carboxylic acid pyridin-3-ylamide]
0.139 µM	N#Cc1ccc(NC(=O)c2cnn(-c3cccc(F)c3)c2-c2ccncc2)cc1 [Example 4, 1-(3-Fluoro-phenyl)-5-pyridin-4-yl-1H-pyrazole4-carboxylic acid (4-cyano-phenyl)-amide]
